According to patent US10363253B2, “Combination products for the treatment of RSV” (priority 2016, dated 2019):
Where two headings read alike, the source gives them in different places.

System: rgRSV224, an engineered RSV strain that encodes for eGFP
Format: cell-based
Protocol: To evaluate their combined antiviral effect against RSV, in vitro combination studies were performed with JNJ-53718678 (“compound A”) and various compounds with different mechanisms-of-action (“compound B”). In short, 9 concentrations of Compound A were combined with 6 or 7 concentrations of a certain compound B. HeLa cells were infected with rgRSV224, an engineered RSV strain that encodes for eGFP (Hallak L K, Spillmann D, Collins P L, Peeples M E. Glycosaminoglycan sulfation requirements for respiratory syncytial virus infection; Journal of Virology (2000), 74(22), 10508-13), in the presence of various concentrations of compound A and compound B individually or in combination.
Compound stock solutions were 5 mM in 100% DMSO, with following exceptions: ribavirin, 20 mM; A 60444, 10 mM; CR9501, 141 μM in PBS; palivizumab, 156 μM in PBS; MDT 637, 100 μM in methanol. First, the compounds were serially diluted in 3-fold dilution series in DMSO; CR9501 and palivizumab were serially diluted in cell culture medium, and MDT 637 in methanol. The concentration series were diluted 100-fold in cell culture medium to achieve a combination matrix. 10 μL of these compound solutions were transferred to black 384-well clear-bottom tissue-culture treated plates. Next, 10 μL of a […] HeLa cell suspension was added to achieve 3000 cells per well. Finally, 10 μL of diluted virus stock was added to achieve an MOI of 1. The final DMSO concentration of all wells was 0.5% DMSO, except for the MDT 637 experiment where it was 0.25% DMSO+0.25% methanol. Each combination of compound concentrations was tested in 4 replicates on 3 separate plates, resulting in a total of 12 replicates. The plates were incubated for 3 days at 37° C. in a humidified atmosphere at 5% CO2. The GFP signal was measured with PerkinElmer EnVision apparatus using a 405 nm filter.
The method of Harbron (Statistics in Medicine, 2010, DOI:10.1002/sim3916) was used to assess synergy. Using the Loewe definition, two compounds are characterized as being additive, synergistic or antagonistic by:
where d1 and d2 represent the doses of the two compounds that in combination produce an effect y, and Dy,1 and Dy,2 represent the doses of the two compounds that produce the same effect, y, when administered as a monotherapy. A 3PL model (3-parameter log-logistic model) was used for the monotherapy dose-response data, where the baseline response was fixed at one.
Following Harbron's approach, the following models were fitted to the data: • “Additive”: assuming no interaction between the two compounds • “Uniform”: assuming a constant interaction index τ across all dose combinations • “Linear A”: assuming the interaction index linearly depends on the log 10 dose of compound A: z=τ1+τ2 log 10(dA) • “Separate A”: assuming the interaction index τ takes a separate value for each dose of compound A The latter two models were also considered for compound B: • “Linear B”: assuming the interaction index linearly τ depends on the log 10 dose of compound B: τ=τ1+τ2 log 10(dB) • “Separate B”: assuming the interaction index τ takes a separate value for each dose of compound B

Compound | normalized GFP signal | normalized GFP signal (A = 0, B (pulmocide compound) = 0.058) | normalized GFP signal (A = 0, B (pulmocide compound) = 0.17) | normalized GFP signal (A = 0, B (pulmocide compound) = 1.6) | normalized GFP signal (A = 0, B (pulmocide compound) = 4.7) | normalized GFP signal (A = 0, B (pulmocide compound) = 14) | normalized GFP signal (A = 0, B (pulmocide compound) = 42) | normalized GFP signal (A = 0, B (CAS 851658-10-1) = 1.9) | normalized GFP signal (A = 0, B (CAS 851658-10-1) = 5.7) | normalized GFP signal (A = 0, B (CAS 851658-10-1) = 17) | normalized GFP signal (A = 0, B (CAS 851658-10-1) = 51) | normalized GFP signal (A = 0, B (CAS 851658-10-1) = 154) | normalized GFP signal (A = 0, B (CAS 851658-10-1) = 463) | normalized GFP signal (A = 0, B (CAS 851658-10-1) = 1389)
Cc1cnc(N2CC3(CCOCC3)C2)c(C(=O)Nc2ccc(C(=O)N3CCc4cc(C(=O)Nc5c(C)cccc5F)sc4-c4ccccc43)cc2)c1 [pulmocide compound, N-(2-fluoro-6-methylphenyl)-6-(4-(5-methyl-2-(7-oxa-2-azaspiro[3.5]nonan-2-yl)nicotinamido)benzoyl)-5,6-dihydro-4H-benzo[b]thieno[2,3-d]azepine-2-carboxamide, reference compound] | 1.04 | 0.99 | 0.99 | 0.91 | 0.20 | 0.02 | 0.02 | – | – | – | – | – | – | –
COc1ccc(CCNCCCN2C(=O)c3c(cc(N)c4nc(-c5ccc(C)c([N+](=O)[O-])c5)[nH]c34)C(C)(C)C2=O)cc1OC [CAS 851658-10-1, 4-amino-8-[3-[[2-(3,4-dimethoxyphenyl)ethyl]amino]propyl]-6,6-dimethyl-2-(4-methyl-3-nitrophenyl)-3H-imidazo[4,5-h]isoquinoline-7,9(6H,8H)-dione, reference compound] | – | – | – | – | – | – | – | 0.99 | 0.97 | 0.89 | 0.74 | 0.38 | 0.05 | 0.01
